Results reported in ChEMBL document CHEMBL5137110, “Production of Multiple Talaroenamines from Penicillium malacosphaerulum via One-Pot/Two-Stage Precursor-Directed Biosynthesis” (J Nat Prod, 2022).
Values after ≈ are worked out from the molar mass of the structure shown. Counter-ions that a name gives are not always drawn.

Assays:
[1] = test system: K562; test: Cytotoxicity against human K562 cells assessed as reduction in cell viability by MTT assay; assay type: functional, cell-based
[2] = test system: MDA-MB-231; test: Cytotoxicity against human MDA-MB-231 cells assessed as reduction in cell viability by SRB assay; assay type: functional, cell-based
[3] = test system: L02; test: Cytotoxicity against human L02 cells assessed as reduction in cell viability by SRB assay; assay type: functional, cell-based
[4] = test system: H69AR; test: Cytotoxicity against human H69AR cells assessed as reduction in cell viability by SRB assay; assay type: functional, cell-based
[5] = test system: ASPC1; test: Cytotoxicity against human ASPC1 cells assessed as reduction in cell viability by SRB assay; assay type: functional, cell-based
[6] = test system: Bacillus cereus; test: Antibacterial activity against Bacillus cereus assessed as inhibition of bacterial growth incubated for 18 to 20 hrs by agar dilution method; assay type: functional; conditions: time 18-20 hrs
[7] = test system: Escherichia coli; test: Antibacterial activity against Escherichia coli assessed as inhibition of bacterial growth incubated for 18 to 20 hrs by agar dilution method; assay type: functional; conditions: time 18-20 hrs
[8] = test system: Proteus; test: Antibacterial activity against Proteus species assessed as inhibition of bacterial growth incubated for 18 to 20 hrs by agar dilution method; assay type: functional; conditions: time 18-20 hrs

SMILES	IC50 [1] [µM]	IC50 [2] [µM]	IC50 [3] [µM]	IC50 [4] [µM]	IC50 [5] [µM]	MIC [6] [µg/mL]	MIC [7] [µg/mL]	MIC [8] [µg/mL]
CC1=CC(=O)[C@@](C)(O)C(=O)/C1=C\Nc1ccc(C(=O)O)cc1	8.5	> 30	16.1	9.6	> 30	–	–	–
CC1=CC(=O)[C@@](C)(O)C(=O)/C1=C\Nc1ccc(Cl)c(Cl)c1	–	–	–	–	–	16.3 (≈ 50 µM)	16.3 (≈ 50 µM)	16.3 (≈ 50 µM)
CC1=CC(=O)[C@@](C)(O)C(=O)/C1=C\Nc1cccc(C(N)=O)c1	2.2	> 30	17	> 30	> 30	–	–	–
CC1=CC(=O)[C@@](C)(O)C(=O)/C1=C\Nc1ccc(F)cc1Br	2.8	> 30	20.9	> 30	> 30	–	–	–
COc1cccc2c1C(=O)c1c(O)c3c(c(O)c1C2=O)C[C@@](O)(C(=O)CO)C[C@@H]3O[C@H]1C[C@H](N)[C@H](O)[C@H](C)O1 [DOXORUBICIN HYDROCHLORIDE]	–	0.3	0.2	15.1	–	–	–	–
